# Measured values reported in publication PMC8842743 (Journal of Alzheimer's Disease Reports, 2022).
# Tested on: healthy subjects
# Assay: Clinical liver safety laboratory data over time
# Type: in vivo, human
# Conditions: mean (SD)
smiles,measurement,setting,value
COc1cnc(C(=O)Nc2ccc(F)c([C@]34CN(c5ncc(F)cn5)C[C@H]3CSC(N)=N4)c2)cn1 [LY3202626],Albumin,"6 mg daily, Day 8",46.3 (1.6) g/L
same,GGT,"6 mg daily, Day 8",21.7 (10.8) U/L
same,Total Bilirubin,"6 mg daily, Day 8",8.1 (2.8) umol/L
same,ALP,"6 mg daily, Day 10",62.9 (15.4) U/L
same,ALT,"6 mg daily, Day 10",17.9 (2.3) U/L
same,AST,"6 mg daily, Day 10",19.6 (6.0) U/L
same,Albumin,"6 mg daily, Day 10",46.0 (1.7) g/L
same,GGT,"6 mg daily, Day 10",20.6 (8.7) U/L
same,Total Bilirubin,"6 mg daily, Day 10",8.2 (2.7) umol/L
same,ALP,"6 mg daily, Day 12",63.6 (17.2) U/L
same,ALT,"6 mg daily, Day 12",16.9 (2.5) U/L
same,AST,"6 mg daily, Day 12",17.2 (3.8) U/L
same,Albumin,"6 mg daily, Day 12",46.7 (1.6) g/L
same,GGT,"6 mg daily, Day 12",20.3 (8.2) U/L
same,Total Bilirubin,"6 mg daily, Day 12",7.4 (2.4) umol/L
same,ALP,"6 mg daily, Day 14",62.2 (16.0) U/L
same,ALT,"6 mg daily, Day 14",15.2 (2.5) U/L
same,AST,"6 mg daily, Day 14",15.3 (4.3) U/L
same,Albumin,"6 mg daily, Day 14",44.4 (1.8) g/L
same,GGT,"6 mg daily, Day 14",19.3 (10.3) U/L
same,Total Bilirubin,"6 mg daily, Day 14",8.1 (5.0) umol/L
same,ALP,"6 mg daily, Day 15",58.9 (14.3) U/L
same,ALT,"6 mg daily, Day 15",16.1 (2.9) U/L
same,AST,"6 mg daily, Day 15",15.9 (3.9) U/L
same,Albumin,"6 mg daily, Day 15",43.8 (2.1) g/L
same,GGT,"6 mg daily, Day 15",18.6 (8.6) U/L
same,Total Bilirubin,"6 mg daily, Day 15",7.3 (3.0) umol/L
same,ALP,"6 mg daily, Day 17",65.0 (18.7) U/L
same,ALT,"6 mg daily, Day 17",19.8 (4.3) U/L
same,AST,"6 mg daily, Day 17",18.9 (3.5) U/L
same,Albumin,"6 mg daily, Day 17",46.0 (1.7) g/L
same,GGT,"6 mg daily, Day 17",20.9 (9.7) U/L
same,Total Bilirubin,"6 mg daily, Day 17",6.3 (4.7) umol/L
same,ALP,"26 mg daily, Day 1 predose",56.9 (12.0) U/L
same,ALT,"26 mg daily, Day 1 predose",16.9 (6.3) U/L
same,AST,"26 mg daily, Day 1 predose",15.2 (2.5) U/L
same,Albumin,"26 mg daily, Day 1 predose",46.3 (1.9) g/L
same,GGT,"26 mg daily, Day 1 predose",18.3 (8.2) U/L
same,Total Bilirubin,"26 mg daily, Day 1 predose",9.0 (2.6) umol/L
same,ALP,"26 mg daily, Day 2",57.9 (11.3) U/L
same,ALT,"26 mg daily, Day 2",15.6 (6.2) U/L
same,AST,"26 mg daily, Day 2",14.6 (2.7) U/L
same,Albumin,"26 mg daily, Day 2",46.2 (1.9) g/L
same,GGT,"26 mg daily, Day 2",18.9 (8.5) U/L
same,Total Bilirubin,"26 mg daily, Day 2",8.6 (2.6) umol/L
same,ALP,"26 mg daily, Day 3",57.2 (11.1) U/L
same,ALT,"26 mg daily, Day 3",16.2 (6.4) U/L
same,AST,"26 mg daily, Day 3",14.9 (3.6) U/L
same,Albumin,"26 mg daily, Day 3",45.0 (2.7) g/L
same,GGT,"26 mg daily, Day 3",18.6 (8.8) U/L
same,Total Bilirubin,"26 mg daily, Day 3",7.1 (2.3) umol/L
same,ALP,"26 mg daily, Day 4",58.6 (10.8) U/L
same,ALT,"26 mg daily, Day 4",16.9 (5.6) U/L
same,AST,"26 mg daily, Day 4",16.8 (3.8) U/L
same,Albumin,"26 mg daily, Day 4",46.0 (1.9) g/L
same,GGT,"26 mg daily, Day 4",19.0 (9.6) U/L
same,Total Bilirubin,"26 mg daily, Day 4",6.7 (1.4) umol/L
same,ALP,"26 mg daily, Day 6",57.6 (12.0) U/L
same,ALT,"26 mg daily, Day 6",16.2 (5.2) U/L
same,AST,"26 mg daily, Day 6",17.8 (3.2) U/L
same,Albumin,"26 mg daily, Day 6",44.9 (2.0) g/L
same,GGT,"26 mg daily, Day 6",18.2 (8.5) U/L
same,Total Bilirubin,"26 mg daily, Day 6",8.6 (3.0) umol/L
same,ALP,"26 mg daily, Day 8",59.3 (10.8) U/L
same,ALT,"26 mg daily, Day 8",16.8 (4.5) U/L
same,AST,"26 mg daily, Day 8",16.4 (3.0) U/L
same,Albumin,"26 mg daily, Day 8",46.3 (2.9) g/L
same,GGT,"26 mg daily, Day 8",18.6 (7.2) U/L
same,Total Bilirubin,"26 mg daily, Day 8",8.6 (4.6) umol/L
same,ALP,"26 mg daily, Day 10",60.7 (11.4) U/L
same,ALT,"26 mg daily, Day 10",15.8 (5.5) U/L
same,AST,"26 mg daily, Day 10",16.1 (2.7) U/L
same,Albumin,"26 mg daily, Day 10",45.8 (2.0) g/L
same,GGT,"26 mg daily, Day 10",17.9 (7.4) U/L
same,Total Bilirubin,"26 mg daily, Day 10",8.7 (4.2) umol/L
same,ALP,"26 mg daily, Day 12",60.1 (9.6) U/L
same,ALT,"26 mg daily, Day 12",16.9 (5.6) U/L
same,AST,"26 mg daily, Day 12",18.3 (3.5) U/L
same,Albumin,"26 mg daily, Day 12",44.9 (2.3) g/L
same,GGT,"26 mg daily, Day 12",17.7 (7.4) U/L
same,Total Bilirubin,"26 mg daily, Day 12",8.3 (4.5) umol/L
same,ALP,"26 mg daily, Day 14",59.3 (10.2) U/L
same,ALT,"26 mg daily, Day 14",17.1 (7.4) U/L
same,AST,"26 mg daily, Day 14",16.3 (4.0) U/L
same,Albumin,"26 mg daily, Day 14",43.7 (2.2) g/L
same,GGT,"26 mg daily, Day 14",18.1 (8.8) U/L
same,Total Bilirubin,"26 mg daily, Day 14",5.8 (2.4) umol/L
same,ALP,"26 mg daily, Day 15",58.6 (9.6) U/L
same,ALT,"26 mg daily, Day 15",16.8 (7.8) U/L
same,AST,"26 mg daily, Day 15",16.2 (4.6) U/L
same,Albumin,"26 mg daily, Day 15",44.0 (2.6) g/L
same,GGT,"26 mg daily, Day 15",17.6 (8.8) U/L
same,Total Bilirubin,"26 mg daily, Day 15",7.2 (1.9) umol/L
same,ALP,"26 mg daily, Day 17",65.7 (11.5) U/L
same,ALT,"26 mg daily, Day 17",20.0 (9.8) U/L
same,AST,"26 mg daily, Day 17",18.6 (6.2) U/L
same,Albumin,"26 mg daily, Day 17",45.9 (1.3) g/L
same,GGT,"26 mg daily, Day 17",20.7 (11.1) U/L
same,Total Bilirubin,"26 mg daily, Day 17",7.3 (4.6) umol/L
